Where a name gives a salt, the structure may show the parent alone.

A short description of series [1]: Skin permeability test using isolated rat abdominal skin (Franz-type diffusion cell). As to conditions: accumulated up to 6 hours, 2.5 wt % as NSAID free acid in diethyl sebacate/propylene glycol, 32° C. The protocol:
An equimolar salt of NSAID and organic amine was dissolved in a mixture of diethyl sebacate and propylene glycol to give a solution preparation. For comparison, a solution preparation (control) of NSAID was prepared in the same manner.
As a receptor solution, saline-ethanol solution (9:1, 8 ml) was placed in an upright Franz-type diffusion cell (effective diffusion area: 1 cm^2), and the solution was stirred and maintained at 32° C. An isolated abdominal shaved skin of 6-week-old Wistar rat was applied to the Franz cell, and the prepared solution preparation (0.15 ml) was applied to the skin. A part (300 μL) of the receptor solution was taken at predetermined time intervals, the drug concentration in the receptor solution was measured by high performance liquid chromatography, and the drug permeation amount per 1 cm^2 rat skin was calculated.
Unless otherwise indicated, in the following Experimental Examples, the drug concentration of the solution preparation is 2.5 wt % as NSAID free acid, and the skin permeation amount is an accumulated amount (μg/cm^2) up to 6 hours.

Series [2] can be described thus: Solubility of NSAID-eperisone salt and NSAID free acid in diethyl sebacate. The class given is physicochemical. As to conditions: for amount (g) of diethyl sebacate necessary for dissolving an eperisone salt corresponding to NSAID (1 g) / amount (g) of diethyl sebacate necessary for dissolving NSAID (1 g): room temperature; for amount (g) of diethyl sebacate necessary for dissolving NSAID (1 g): NSAID free acid; for dissolution in diethyl sebacate (50 g): 5 g NSAID free acid or ionic liquid corresponding to 5 g NSAID, shaken at room temperature for 30 min. The protocol: The solubility of an eperisone salt of NSAID, and a free acid of NSAID in diethyl sebacate widely used for external preparations was measured. […] The solutions were stood still and, when an undissolved matter was found, diethyl sebacate was further added, and the mixture was shaken.

Series [3] is described as follows: Form of the salt on standing / long-term preservation. The class given is physicochemical. The protocol:
First, a salt was produced using equimolar amounts of a carboxylic acid NSAID and organic amine. […] The obtained ionic liquid or crystals and the like were left standing, confirmed to be stable, and then the forms thereof were observed. This has clarified that the salt produced by the combination of NSAID and an organic amine compound may be a liquid (viscous liquid) or crystal at ambient temperature (25° C.).

The conditions of series [4]: room temperature; crystals were indomethacin:lidocain 2:1; cited from earlier work.

Take `Cc1ccc(C(=O)C(C)CN2CCCCC2)cc1.O=C(O)Cc1ccccc1Nc1c(Cl)cccc1Cl` [diclofenac-tolperisone salt]: the diclofenac permeation amount in series [1] is on record as 20.3 μg/cm^2.

In the case of `CCc1ccc(C(=O)C(C)CN2CCCCC2)cc1.COc1ccc2c(c1)c(CC(=O)O)c(C)n2C(=O)c1ccc(Cl)cc1` [indomethacin-eperisone salt], in series [2], the “amount (g) of diethyl sebacate necessary for dissolving an eperisone salt corresponding to NSAID (1 g)” value (“amount (g) … to NSAID (1 g)” for short) is given as “not more than 10 g”.

As to `COc1cccc(C2(O)CCCCC2CN(C)C)c1.O=C(O)Cc1ccccc1Nc1c(Cl)cccc1Cl` (stereo not shown) [diclofenac-tramadol salt], in series [3], the “form/note: crystallization during long-term preservation” value is “crystallized”.

In the case of `CC(C(=O)O)c1ccc(-c2ccccc2)c(F)c1.CCc1ccc(C(=O)C(C)CN2CCCCC2)cc1` (stereo not shown) [flurbiprofen-eperisone salt], in series [2], the “amount (g) … to NSAID (1 g)” value is given as “not more than 10 g”.

Turning to `CC(C(=O)O)c1ccc(CC2CCCC2=O)cc1` (stereo not shown) [loxoprofen sodium salt, reference compound], the loxoprofen permeation amount in series [1] (sodium salt) is reported as 27.1 μg/cm^2.

Take `CC(C(=O)O)c1ccc(CC2CCCC2=O)cc1.CCCCN1CCCCC1C(=O)Nc1c(C)cccc1C` (stereo not shown) [loxoprofen-bupivacaine salt]: the “form/note: crystallization during long-term preservation” value in series [3] is given as “partially”.

Take `CCN(CC)CC(=O)Nc1c(C)cccc1C.O=C(O)Cc1ccccc1Nc1c(Cl)cccc1Cl` [diclofenac-lidocain salt]: the “form/note: crystallization during long-term preservation” value in series [3] is given as “partial”.

The compound `CC(C(=O)O)c1ccc(-c2ccccc2)c(F)c1.Cc1ccc(C(=O)C(C)CN2CCCCC2)cc1` (stereo not shown) [flurbiprofen-tolperisone salt] showed a flurbiprofen permeation amount in series [1] of 46.3 μg/cm^2.

On to `CC(C(=O)O)c1ccc(-c2ccccc2)c(F)c1` (stereo not shown) [flurbiprofen, reference compound], for which, in series [2], the “amount (g) of diethyl sebacate necessary for dissolving NSAID (1 g)” value (from here on “amount (g) … for dissolving NSAID (1 g)”) is given as “not more than 10 g”. In series [1], this compound gave a flurbiprofen permeation amount of 20.2 μg/cm^2.

In series [1], `CC(C(=O)O)c1ccc(-c2ccccc2)c(F)c1.CC(O)CN(CC(C)O)CC(C)O` (stereo not shown) [flurbiprofen-TIPA salt] registered a flurbiprofen permeation amount of 91.8 μg/cm^2.

Take `CC(C(=O)O)c1ccc(CC2CCCC2=O)cc1.CCc1ccc(C(=O)C(C)CN2CCCCC2)cc1` (stereo not shown) [loxoprofen-eperisone salt]: the “amount (g) … to NSAID (1 g)” value in series [2] is “not more than 10 g”. Also, the loxoprofen permeation amount in series [1] stood at 91.2 μg/cm^2.

As to `COc1ccc2c(c1)c(CC(=O)O)c(C)n2C(=O)c1ccc(Cl)cc1` [indomethacin], in series [2], the “dissolution in diethyl sebacate (50 g)” value is on record as “not dissolved” and the “amount (g) … for dissolving NSAID (1 g)” value is “not less than 100 g”. The indomethacin permeation amount in series [1] is recorded as 6.9 μg/cm^2.

For the compound `COc1ccc2c(c1)c(CC(=O)O)c(C)n2C(=O)c1ccc(Cl)cc1.COc1cccc(C2(O)CCCCC2CN(C)C)c1` [indomethacin-tramadol salt], in series [1], the indomethacin permeation amount is 9.8 μg/cm^2.

For `CCN(CC)CC(=O)Nc1c(C)cccc1C.COc1ccc2c(c1)c(CC(=O)O)c(C)n2C(=O)c1ccc(Cl)cc1`, the “stability of the ionic liquid when stood still” value in series [4] is listed as “crystals were gradually precipitated”.

Turning to `CC(O)CN(CC(C)O)CC(C)O.COc1ccc2c(c1)c(CC(=O)O)c(C)n2C(=O)c1ccc(Cl)cc1` [indomethacin-TIPA salt], in series [1], the indomethacin permeation amount is given as 15.8 μg/cm^2.

Regarding `CCc1cccc2c3c([nH]c12)C(CC)(CC(=O)O)OCC3` (stereo not shown) [etodolac, reference compound], the “amount (g) … for dissolving NSAID (1 g)” value in series [2] is given as “not more than 10 g”. In series [1], this compound registered an etodolac permeation amount of 10.4 μg/cm^2.

Compound `CC(C(=O)O)c1ccc(-c2ccccc2)c(F)c1.CCN(CC)CC(=O)Nc1c(C)cccc1C` (stereo not shown) [flurbiprofen-lidocain salt] showed a flurbiprofen permeation amount in series [1] of 91.0 μg/cm^2.

`O=C(O)Cc1ccccc1Nc1c(Cl)cccc1Cl` [diclofenac]: in series [2], the “dissolution in diethyl sebacate (50 g)” value was “not dissolved” and the “amount (g) … for dissolving NSAID (1 g)” value is recorded as “not less than 100 g”. For the same compound, the diclofenac permeation amount in series [1] is given as 8.8 μg/cm^2.

Turning to `CC(C(=O)O)c1ccc(CC2CCCC2=O)cc1.Cc1ccc(C(=O)C(C)CN2CCCCC2)cc1` (stereo not shown) [loxoprofen-tolperisone salt], the loxoprofen permeation amount in series [1] was found to be 82.3 μg/cm^2.

Consider `CC(C(=O)O)c1ccc(CC2CCCC2=O)cc1.CCN(CC)CC(=O)Nc1c(C)cccc1C` (stereo not shown) [loxoprofen-lidocain salt], for which, in series [1], the loxoprofen permeation amount stood at 103.4 μg/cm^2.

As for `COc1ccc2c(c1)c(CC(=O)O)c(C)n2C(=O)c1ccc(Cl)cc1.Cc1ccc(C(=O)C(C)CN2CCCCC2)cc1` [indomethacin-tolperisone salt], the indomethacin permeation amount in series [1] is reported as 14.7 μg/cm^2.

`CC(C(=O)O)c1cccc(C(=O)c2ccccc2)c1` (stereo not shown) [ketoprofen, reference compound] gave a Ketoprofen permeation amount in series [1] of 36.1 μg/cm^2.

On to `CC(C(=O)O)c1ccc(CC2CCCC2=O)cc1` (stereo not shown) [loxoprofen], for which, in series [2], the “dissolution in diethyl sebacate (50 g)” value was “not dissolved” and the “amount (g) … for dissolving NSAID (1 g)” value is given as “not less than 100 g”. Also, in series [1] (listed as loxoprofen free acid), the loxoprofen permeation amount worked out at 49.5 μg/cm^2.

In series [1], `CC(C(=O)O)c1ccc(-c2ccccc2)c(F)c1.COc1cccc(C2(O)CCCCC2CN(C)C)c1` (stereo not shown) [flurbiprofen-tramadol salt] registered a flurbiprofen permeation amount of 78.1 μg/cm^2.

Take `CCc1cccc2c3c([nH]c12)C(CC)(CC(=O)O)OCC3.Cc1ccc(C(=O)C(C)CN2CCCCC2)cc1` (stereo not shown) [etodolac-tolperisone salt]: the etodolac permeation amount in series [1] worked out at 22.3 μg/cm^2.

Compound loxoprofen-DIPA salt yielded a loxoprofen permeation amount in series [1] of 68.6 μg/cm^2.

As to `CCc1ccc(C(=O)C(C)CN2CCCCC2)cc1.CCc1cccc2c3c([nH]c12)C(CC)(CC(=O)O)OCC3` (stereo not shown) [etodolac-eperisone salt], the “amount (g) … to NSAID (1 g)” value in series [2] is reported as “not more than 10 g”. The compound further returned an etodolac permeation amount in series [1] of 20.5 μg/cm^2.

(Values after patent US20100029704A1, “SALT OF NONSTEROIDAL ANTI-INFLAMMATORY DRUG AND ORGANIC AMINE COMPOUND AND USE THEREOF” (priority 2007, published 2010).)
